For this experiment, the system named is Salmonella. Nature of the experiment: Single-infection mouse model with probiotic strain added 1:1 to wild-type or fraB mutant Salmonella. The settings on record: presence or absence of probiotic or exogenous F-Asn, day 4 post-infection. The format is in vivo, streptomycin-treated Swiss Webster mice. As for the experimental part: A quadruple mutant designated ASD203 (ASPII ASPI2 AfraRBDAE4 AasnB80:kan) was evaluated for use as a probiotic in combination with FraB inhibitors. This is a strain of Salmonella lacking SPI1 and SPI2 so that it cannot induce inflammation. Additionally, this strain cannot consume F-Asn due to a deletion of the entire fra island (fraR-fraBDAE). The ansB gene was also deleted as this asparaginase is capable of converting F-Asn to F-Asp. The addition of this probiotic should provide an inflammation resistant competitor to Salmonella for all nutrients except F-Asn, effectively forcing the use of F-Asn as a nutrient. […]
Mouse modeling experiments—For competition experiments, a 1:1 mixture of two different bacterial strains were inoculated intragastrically (i.g.) and then recovered from ceca to determine the competitive index (CI) of the two strains. […] CI was determined by plating on media selective for WT (LB cam) and mutant (LB kan). For the competitions with the fraB F214A mutant which is not marked, CI was determined by screening 52 individual colonies recovered from XLD plates for antibiotic resistance by patching on LB plates containing the appropriate antibiotic, thus the limit of detection on these experiments is less than two logs. […] CFU enumeration was determined by plating on media selective for WT (LB cam) and the mutant (LB kan). […]

Take fructose-asparagine [F-Asn]: the “numbers of fraB mutant bacteria recovered” value is listed as “not significantly different”.

The values are drawn from patent publication US20250375435A1, “COMPOUNDS FOR TREATING INFECTIONS” (Ohio State Innovation Foundation, priority 2022, published 2025).
